# Values quoted from earlier work, collected in patent US9402788B2, “Manufacture of multiple minicapsules” (Sigmoid Pharma Ltd., priority 2007, dated 2016).
# Counter-ions that a name gives are not always drawn.
# How the values were obtained:
# [1] = HME film, clotrimazole 10% w/w
# [2] = after extrusion with EC/HM polymers; HPLC
smiles,measurement,setting,value
Clc1ccccc1C(c1ccccc1)(c1ccccc1)n1ccnc1 [clotrimazole],duration of prolonged release,[1],10 h
same,duration of zero-order release,[1],6 h
CC(C)Cc1ccc(C(C)C(=O)O)cc1 (centres unmarked) [ibuprofen],ibuprofen amount remained after extrusion,[2],98.9%
CC(C)NCC(O)COc1cccc2ccccc12 (centres unmarked) [propranolol HCl],aqueous solubility,,50 mg/mL
Cn1c(=O)c2[nH]cnc2n(C)c1=O.O [theophylline monohydrate],aqueous solubility,,8.33 mg/mL
